Source: patent publication US20220331303A1, “USE OF AN OREXIN 2 RECEPTOR AGONIST FOR THE TREATMENT OF EXCESSIVE SLEEPINESS” (Takeda Pharmaceutical Company Limited, priority 2019, published 2022)

Test: Plasma PK of Compound A after a single 9-hour IV infusion in sleep-deprived healthy male subjects
Format: in vivo, human
Protocol: This was a phase 1b, single-center, randomized, double-blind, double-dummy, placebo- and active-controlled, 4-period Williams design crossover study to evaluate the PK, PD, and safety of Compound A in sleep-deprived healthy volunteers. Compound A was administered as a 9-hour IV infusion.
Healthy adult male subjects aged 18 to 40 years, inclusive, who satisfied the inclusion and exclusion criteria were enrolled in the trial. On Day 1 of treatment period 1, eligible subjects were equally randomized to 4 treatment sequence groups (sequence 1 to 4) which defined the order of administration for Compound A LD, Compound A HD (both delivered as a 9-hour IV infusion), modafinil 300 mg, and placebo.
During the day before dosing on Day 1, participants were administered the KSS at scheduled timepoints. A practice MWT session was performed on Day 1 treatment period 1 (only once during the entire study) to familiarize subjects with the procedures. Study drug was administered in the clinic in the evening on Day 1 of each treatment period. Subjects underwent the MWT and KSS at specified timepoints after the start of the infusion. Subjects were required to stay awake between the MWT tests. Following completion of the IV infusion on Day 2, subjects underwent an additional MWT test. When the final MWT test and cognitive testing were completed, subjects were allowed to sleep (recovery sleep) for approximately 6 hours. PSG recording was collected during this time. Subjects were discharged from the unit after completion on Day 2 with continuing actigraphy upon discharge (to begin on Day −6 before the next treatment period). The interval between each subsequent treatment period was at least 7 days to ensure that the subject's circadian rhythm had returned to a normal cycle. Subject's vital signs, including BP, were monitored during the dosing and testing period. Blood samples for determination of Compound A plasma concentrations were collected at specified timepoints on Days 1 and 2 of each treatment period. Subjects completed the Columbia-Suicide Severity Rating Scale (C-SSRS) during screening, before study drug administration, and before discharge on Day 2 of each treatment period.
Plasma concentrations were tabulated, and descriptive statistics were calculated for each Compound A dose level and are listed in Tables 3-6 for Compound A. The mean plasma concentration versus time plots for Compound A are shown in FIG. 1.

[1] = 44 mg 9-h IV infusion, 0.17 h post infusion end
[2] = 44 mg 9-h IV infusion, 0.5 h post infusion end
[3] = 44 mg 9-h IV infusion, 1 h post infusion end
[4] = 44 mg 9-h IV infusion, 2 h post infusion end
[5] = 44 mg 9-h IV infusion, 3 h post infusion end
[6] = 44 mg 9-h IV infusion, 4 h post infusion end
[7] = 44 mg 9-h IV infusion, 6 h post infusion end
[8] = 44 mg 9-h IV infusion, 9 h post infusion end
[9] = 44 mg 9-h IV infusion, Discharge (post infusion end)
[10] = 44 mg [LD] single 9-hour IV infusion
[11] = 112 mg 9-h IV infusion, 0.17 h post infusion end
[12] = 112 mg 9-h IV infusion, 0.5 h post infusion end
[13] = 112 mg 9-h IV infusion, 1 h post infusion end
[14] = 112 mg 9-h IV infusion, 1 h post infusion start
[15] = 112 mg 9-h IV infusion, 2 h post infusion end
[16] = 112 mg 9-h IV infusion, 2 h post infusion start
[17] = 112 mg 9-h IV infusion, 4 h post infusion start
[18] = 112 mg 9-h IV infusion, 6 h post infusion start
[19] = 112 mg 9-h IV infusion, 9 h post infusion start
[20] = 112 mg 9-h IV infusion, Discharge (post infusion end)
[21] = 112 mg [HD] single 9-hour IV infusion

COC(=O)N1CCC[C@H](NS(C)(=O)=O)[C@@H]1CO[C@H]1CC[C@@H](c2ccccc2)CC1 [Compound A, methyl (2R,3S)-3-((methylsulfonyl)amino)-2-(((cis-4-phenylcyclohexyl)oxy)methyl)piperidine-1-carboxylate]
Plasma Concentration Mean [1]: 0.07686 µg/mL
Plasma concentration (GM) [1]: 0.07607 µg/mL
Plasma concentration (Median) [1]: 0.0748 µg/mL
Plasma Concentration Mean [2]: 0.05078 µg/mL
Plasma concentration (GM) [2]: 0.04949 µg/mL
Plasma concentration (Median) [2]: 0.0491 µg/mL
Plasma Concentration Mean [3]: 0.04073 µg/mL
Plasma concentration (GM) [3]: 0.03905 µg/mL
Plasma concentration (Median) [3]: 0.03815 µg/mL
Plasma Concentration Mean [4]: 0.02223 µg/mL
Plasma concentration (GM) [4]: 0.02144 µg/mL
Plasma concentration (Median) [4]: 0.021 µg/mL
Plasma Concentration Mean [5]: 0.02067 µg/mL
Plasma concentration (GM) [5]: 0.01974 µg/mL
Plasma concentration (Median) [5]: 0.02035 µg/mL
Plasma Concentration Mean [6]: 0.01628 µg/mL
Plasma concentration (GM) [6]: 0.01556 µg/mL
Plasma concentration (Median) [6]: 0.01725 µg/mL
Plasma Concentration Mean [7]: 0.01032 µg/mL
Plasma concentration (GM) [7]: 0.00985 µg/mL
Plasma concentration (Median) [7]: 0.01075 µg/mL
Plasma Concentration Mean [8]: 0.00556 µg/mL
Plasma concentration (GM) [8]: 0.00506 µg/mL
Plasma concentration (Median) [8]: 0.00506 µg/mL
Plasma Concentration Mean [9]: 0.00495 µg/mL
Plasma concentration (GM) [9]: 0.0046 µg/mL
Plasma concentration (Median) [9]: 0.00478 µg/mL
Ceoi (GM) [10]: 102.5 ng/mL
Ceoi (Mean) [10]: 103.4 ng/mL
Ceoi (Median) [10]: 101.0 ng/mL
t1/2z (Mean) [10]: 3.134 h
t1/2z (Median) [10]: 3.020 h
Plasma Concentration Mean [11]: 0.19683 µg/mL
Plasma concentration (Median) [11]: 0.1975 µg/mL
Plasma Concentration Mean [12]: 0.12421 µg/mL
Plasma concentration (Median) [12]: 0.1215 µg/mL
Plasma Concentration Mean [13]: 0.10048 µg/mL
Plasma concentration (Median) [13]: 0.0969 µg/mL
Plasma Concentration Mean [14]: 0.16256 µg/mL
Plasma concentration (GM) [14]: 0.15556 µg/mL
Plasma concentration (Median) [14]: 0.151 µg/mL
Plasma Concentration Mean [15]: 0.05892 µg/mL
Plasma concentration (Median) [15]: 0.0614 µg/mL
Plasma Concentration Mean [16]: 0.18706 µg/mL
Plasma concentration (GM) [16]: 0.18571 µg/mL
Plasma concentration (Median) [16]: 0.1795 µg/mL
Plasma Concentration Mean (112 mg 9-h IV infusion, 3 h post infusion end): 0.05301 µg/mL
Plasma Concentration Mean (112 mg 9-h IV infusion, 4 h post infusion end): 0.04198 µg/mL
Plasma Concentration Mean [17]: 0.21761 µg/mL
Plasma concentration (GM) [17]: 0.21656 µg/mL
Plasma concentration (Median) [17]: 0.21 µg/mL
Plasma Concentration Mean (112 mg 9-h IV infusion, 6 h post infusion end): 0.02424 µg/mL
Plasma Concentration Mean [18]: 0.23406 µg/mL
Plasma concentration (GM) [18]: 0.23292 µg/mL
Plasma concentration (Median) [18]: 0.2295 µg/mL
Plasma Concentration Mean (112 mg 9-h IV infusion, 9 h post infusion end): 0.01378 µg/mL
Plasma Concentration Mean [19]: 0.25339 µg/mL
Plasma concentration (GM) [19]: 0.25096 µg/mL
Plasma concentration (Median) [19]: 0.2525 µg/mL
Plasma Concentration Mean [20]: 0.01301 µg/mL
Plasma concentration (GM) [20]: 0.01209 µg/mL
Plasma concentration (Median) [20]: 0.0115 µg/mL
Ceoi (GM) [21]: 251.0 ng/mL
Ceoi (Mean) [21]: 253.4 ng/mL
Ceoi (Median) [21]: 252.5 ng/mL
t1/2z (Mean) [21]: 3.252 h
t1/2z (Median) [21]: 3.165 h
